These results are taken from patent US6103709A (priority 1998, dated 2000).

One experiment deals with VDRnuc. Briefly: Genomic response (summary classification). The following applies: Yes/No, Tables 1 and 6.
The target in experiment [1] is T1, nuclear receptor for 1α,25(OH)2 D3 [VDRnuc] (Gallus gallus, UniProt O42392).
T1 construct: VDRnuc receptor preparation from chick intestine mucosa; from tissue; host or cells: chick intestinal mucosa
T1 sequence (O42392 1-451): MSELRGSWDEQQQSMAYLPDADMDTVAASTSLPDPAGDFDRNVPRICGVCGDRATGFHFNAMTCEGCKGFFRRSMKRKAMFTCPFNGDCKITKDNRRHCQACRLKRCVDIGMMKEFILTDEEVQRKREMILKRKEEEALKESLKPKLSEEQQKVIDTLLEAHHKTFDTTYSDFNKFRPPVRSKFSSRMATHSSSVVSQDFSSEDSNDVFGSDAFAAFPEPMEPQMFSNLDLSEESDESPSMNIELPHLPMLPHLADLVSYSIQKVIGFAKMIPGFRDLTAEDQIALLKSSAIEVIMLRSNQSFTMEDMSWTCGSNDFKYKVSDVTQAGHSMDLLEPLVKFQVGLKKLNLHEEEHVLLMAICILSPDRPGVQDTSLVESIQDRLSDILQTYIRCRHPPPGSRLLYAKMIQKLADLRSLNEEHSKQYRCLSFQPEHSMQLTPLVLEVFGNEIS
Briefly: Relative Competitive Index (steroid competition) assay, nuclear receptor VDRnuc. Conditions: for Binding to VDRnuc relative to 1α,25(OH)2 D3 (RCI): 1α,25(OH)2 D3 = 100%, FIG. 8: chick intestine mucosa; for Nuclear 1α,25-D Receptor (RCI): RCI of 1α,25(OH)2 D3 = 100. In kind it is binding, chick. On the set-up: key to Nuclear 1α,25-D Receptor (RCI): % relative to 1α,25(OH)2D3 binding (RCI = 100%). As for the experimental part:
The ability of analogs to mediate genomic responses are directly determined by the ability of the analog in question to bind to the nuclear receptor for 1α,25(OH)2 D3 [VDRnuc ]. This ability is detected by the assay measuring Relative Competitive Index (RCI).
The assay is based upon the principles of a steroid competition assay. A fixed amount of [^3 H]1α,25(OH)2 D3 is mixed with increasing amounts of competitive analogs or the natural hormone, 1α,25(OH)2 D3, and incubated with a VDRnuc receptor preparation from chick intestine mucosa.
Ligand Receptor Competition Assay
This example describes a ligand receptor competitive assay used for determination of an analog's relative ability to bind to VDRnuc expressed as relative competitive index (RCI).
The relative affinity of nonradioactive 1α,25(OH)2 D3 and each analog to compete with [^3 H]1α,25(OH)2 D3 for binding to the VDRnuc of NB4 cells was carried out in vitro. The NB4 cells were collected from a fast growing stage and the cellular VDRnuc of 1α,25(OH)2 D3 were extracted from KTED buffer containing 10 mM Tris-HCl, pH 7.4, 300 mM KCl, 1 mM EDTA and 5 mM DTT. After sonication, the cell extract was further centrifuged at 500× g for 10 min. The supernatant was collected for use in a ligand-receptor binding assay.
In this assay, increasing concentrations (10^-10 to 10^-6 M) of nonradioactive 1α,25(OH)2 D3 or the tested analogs were incubated with NB4 cell extracts in the presence of a fixed saturating amount of 1 pmole of [^3 H]1α,25(OH)2 D3. The reciprocal of the percentage of maximal binding of [^3 H]1α,25(OH)2 D3 was then calculated and plotted as a function of the relative analog concentration versus [^3 H]1α,25(OH)2 D3. […] The competitive index value for each analog is then normalized to the competitive index value of the […], thereby generating the value of Relative Competitive Index (RCI) where the RCI for 1α,25(OH)2 D3 is defined as 100%.
The full description of the assay is found in Methods in Enzymology: Vitamins and Co-Enzymes, Vol. 67, 494-500 , Academic Press, NY(1980); Biochem. Biophys. Res. Commun., 91: 827-834 (1979); and Endocrinology, 139(2): 457-465 (1998).

`C=C1/C(=C\C=C2/CCC[C@]3(C)[C@@H]([C@H](C)Cc4cccc(O)c4)CC[C@@H]23)C[C@@H](O)C[C@@H]1O` [DE]: in the experiment on VDRnuc, the “Genomic Response” value is on record as “Yes”. Besides, in experiment [1], the “Binding to VDRnuc relative to 1α,25(OH)2 D3 (RCI)” value came out at 29% and the “Nuclear 1α,25-D Receptor (RCI)” value is on record as 29.

For the compound `C=C1/C(=C\C=C2/CCC[C@]3(C)[C@@H]([C@H](C)Cc4ccc(O)cc4)CC[C@@H]23)C[C@@H](O)C[C@@H]1O` [DF], in the experiment on VDRnuc, the “Genomic Response” value is listed as “Yes”. For the same compound, in experiment [1], the “Binding to VDRnuc relative to 1α,25(OH)2 D3 (RCI)” value amounted to 5% and the “Nuclear 1α,25-D Receptor (RCI)” value is 5.

Regarding `C=C1/C(=C\C=C2/CCC[C@]3(C)[C@@H]([C@H](C)Cc4cccc(C(C)(C)O)c4)CC[C@@H]23)C[C@@H](O)C[C@@H]1O` [EV], in the experiment with VDRnuc, the “Genomic Response” value is “Yes”. Moreover, in experiment [1], the “Binding to VDRnuc relative to 1α,25(OH)2 D3 (RCI)” value was 62% and the “Nuclear 1α,25-D Receptor (RCI)” value amounted to 62.

For `CC1=C(/C=C\C2=CCC[C@@]3(C)[C@@H]2CC[C@@H]3[C@H](C)CCCC(C)(C)O)C[C@@H](O)C[C@@H]1O` [GF], the “Genomic Response” value with VDRnuc is given as “Yes”. The “Nuclear 1α,25-D Receptor (RCI)” value in experiment [1] is listed as 2.

`C=C1/C(=C\C=C2/CCC[C@]3(C)[C@@H]([C@H](C)CCCC(C)(C)O)CC[C@@H]23)C[C@@H](O)C[C@H]1O` [HL]: in the experiment with VDRnuc, the “Genomic Response” value is recorded as “No”.

As for `C=C1/C(=C\C=C2/CCC[C@]3(C)[C@@H]([C@H](C)C=C=CC(C)(C)O)CC[C@@H]23)C[C@@H](O)C[C@@H]1O` [HQ], the “Genomic Response” value in the experiment on VDRnuc is “Yes”. In addition, the “Nuclear 1α,25-D Receptor (RCI)” value in experiment [1] is on record as 21.

Take `C=C1/C(=C\C=C2/CCC[C@]3(C)[C@@H]([C@H](C)C=C=CC(C)(C)O)CC[C@@H]23)C[C@@H](O)C[C@@H]1O` [HR]: in the experiment on VDRnuc, the “Genomic Response” value was “Yes”. Besides, in experiment [1], the “Binding to VDRnuc relative to 1α,25(OH)2 D3 (RCI)” value is recorded as 52% and the “Nuclear 1α,25-D Receptor (RCI)” value stood at 52.

Regarding `C[C@H](CCCC(C)(C)O)[C@H]1CC[C@H]2C3=CC=C4C[C@@H](O)C[C@H](O)[C@]4(C)[C@H]3CC[C@]12C` [JM], in the experiment on VDRnuc, the “Genomic Response” value is listed as “No”. In experiment [1], the “Nuclear 1α,25-D Receptor (RCI)” value is 0.1.

Take `C[C@H](CCCC(C)(C)O)[C@H]1CC[C@H]2C3=CC=C4C[C@@H](O)C[C@H](O)[C@@]4(C)[C@@H]3CC[C@]12C` [JN]: the “Genomic Response” value in the experiment on VDRnuc is “No”. Also, the “Nuclear 1α,25-D Receptor (RCI)” value in experiment [1] is 1.8.

Turning to `C[C@H](CCCC(C)(C)O)[C@H]1CC[C@H]2C3=CC=C4C[C@@H](O)C[C@H](O)[C@@]4(C)[C@H]3CC[C@]12C` [JO], in the experiment with VDRnuc, the “Genomic Response” value is “No”. Besides, the “Nuclear 1α,25-D Receptor (RCI)” value in experiment [1] was 0.2.

Take `C[C@H](CCCC(C)(C)O)[C@H]1CC[C@H]2C3=CC=C4C[C@@H](O)C[C@H](O)[C@]4(C)[C@@H]3CC[C@]12C` [JP]: the “Genomic Response” value in the experiment with VDRnuc is “No”. The “Nuclear 1α,25-D Receptor (RCI)” value in experiment [1] is 0.3.

For `CC1=C(C=C=C2CCC[C@]3(C)[C@@H]([C@H](C)CCCC(C)(C)O)CC[C@@H]23)C[C@@H](O)C[C@@H]1O` [JV], the “Genomic Response” value in the experiment on VDRnuc is “Yes”. Also, the “Nuclear 1α,25-D Receptor (RCI)” value in experiment [1] came out at 1.6.

In the case of `CC1=C(C=C=C2CCC[C@]3(C)[C@@H]([C@H](C)CCCC(C)(C)O)CC[C@@H]23)C[C@@H](O)C[C@@H]1O` [JW], in the experiment on VDRnuc, the “Genomic Response” value is reported as “Yes”. Moreover, the “Nuclear 1α,25-D Receptor (RCI)” value in experiment [1] was found to be 2.6.

With `C=C1CC[C@H](O)C/C1=C/C=C1\CCC[C@]2(C)[C@@H]([C@H](C)Cc3ccc(O)cc3)CC[C@@H]12` [JX], the “Genomic Response” value with VDRnuc is reported as “Yes”. Also, the “Nuclear 1α,25-D Receptor (RCI)” value in experiment [1] worked out at 0.002.

`C=C1CC[C@H](O)C/C1=C/C=C1\CCC[C@]2(C)[C@@H]([C@H](C)Cc3cccc(O)c3)CC[C@@H]12` [JY]: in the experiment with VDRnuc, the “Genomic Response” value was “Yes”. Also, the “Nuclear 1α,25-D Receptor (RCI)” value in experiment [1] worked out at 0.001.

Turning to `C=C1/C(=C\C=C2/CCC[C@]3(C)[C@@H]([C@H](C)CCCC(C)(C)O)C[C@@H]4C[C@@]243)C[C@@H](O)C[C@@H]1O` [LO], the “Genomic Response” value in the experiment on VDRnuc is reported as “Yes”. Also, in experiment [1], the “Binding to VDRnuc relative to 1α,25(OH)2 D3 (RCI)” value amounted to 98% and the “Nuclear 1α,25-D Receptor (RCI)” value was 98. The “VDRnuc binding / nuclear response (in words)” value in experiment [1] (compared with 1α,25(OH)2 D3) is given as “as active in generating nuclear responses as is the 1α,25(OH)2 D3”.
